Measured values published in ChEMBL document CHEMBL1221220, “Transport and signaling via the amino acid binding site of the yeast Gap1 amino acid transceptor” (Nat Chem Biol, 2009).
Numbering of substitutions follows the chain as printed. The source made the active and inactive calls. No cut-off for these calls is given here.

Experiments:
[1] = system: T1, General amino-acid permease GAP1 (Saccharomyces cerevisiae), P19145 [A385C]; test: Induction of yeast Gap1 A385C mutant-mediated trehalose activation at 10 mM
T1 sequence (whole entry): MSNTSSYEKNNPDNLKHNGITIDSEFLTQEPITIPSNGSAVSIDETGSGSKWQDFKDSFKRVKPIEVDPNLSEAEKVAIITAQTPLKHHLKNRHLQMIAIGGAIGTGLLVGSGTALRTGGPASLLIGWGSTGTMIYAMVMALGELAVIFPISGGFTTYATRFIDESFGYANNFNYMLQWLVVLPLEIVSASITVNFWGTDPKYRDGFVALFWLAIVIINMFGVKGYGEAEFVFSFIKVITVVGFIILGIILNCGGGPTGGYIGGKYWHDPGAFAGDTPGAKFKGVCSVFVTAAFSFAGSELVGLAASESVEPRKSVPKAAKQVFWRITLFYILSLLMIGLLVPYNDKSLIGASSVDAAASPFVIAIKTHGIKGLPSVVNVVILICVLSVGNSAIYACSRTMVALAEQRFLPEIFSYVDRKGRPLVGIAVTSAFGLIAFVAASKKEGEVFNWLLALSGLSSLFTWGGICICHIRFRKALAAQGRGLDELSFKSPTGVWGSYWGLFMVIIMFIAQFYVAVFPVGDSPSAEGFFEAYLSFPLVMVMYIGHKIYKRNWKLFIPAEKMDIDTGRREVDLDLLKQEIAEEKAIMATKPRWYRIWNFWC

[2] = system: T2, General amino-acid permease GAP1 (Saccharomyces cerevisiae), P19145 [V381C]; test: Induction of yest Gap1 V381C mutant-mediated trehalose activation at 10 mM
T2 sequence (whole entry): T1 sequence (whole entry) with V381C, C385A

[3] = system: T3, General amino-acid permease GAP1 (Saccharomyces cerevisiae), P19145 [I384C]; test: Induction of yeast Gap1 I384C mutant-mediated trehalose activation at 10 mM
T3 sequence (whole entry): T1 sequence (whole entry) with I384C, C385A

[4] = system: T4, General amino-acid permease GAP1 (Saccharomyces cerevisiae), P19145 [A396C]; test: Induction of yeast Gap1 A396C mutant-mediated trehalose activation at 10 mM
T4 sequence (whole entry): T1 sequence (whole entry) with C385A, A396C

[5] = system: General amino-acid permease GAP1 (Saccharomyces cerevisiae), P19145 [V402C]; test: Inhibition of yeast Gap1 V402C mutant-mediated trehalose activation at 10 mM
General amino-acid permease GAP1 (Saccharomyces cerevisiae), P19145 [V402C], sequence (P19145 whole entry V402C): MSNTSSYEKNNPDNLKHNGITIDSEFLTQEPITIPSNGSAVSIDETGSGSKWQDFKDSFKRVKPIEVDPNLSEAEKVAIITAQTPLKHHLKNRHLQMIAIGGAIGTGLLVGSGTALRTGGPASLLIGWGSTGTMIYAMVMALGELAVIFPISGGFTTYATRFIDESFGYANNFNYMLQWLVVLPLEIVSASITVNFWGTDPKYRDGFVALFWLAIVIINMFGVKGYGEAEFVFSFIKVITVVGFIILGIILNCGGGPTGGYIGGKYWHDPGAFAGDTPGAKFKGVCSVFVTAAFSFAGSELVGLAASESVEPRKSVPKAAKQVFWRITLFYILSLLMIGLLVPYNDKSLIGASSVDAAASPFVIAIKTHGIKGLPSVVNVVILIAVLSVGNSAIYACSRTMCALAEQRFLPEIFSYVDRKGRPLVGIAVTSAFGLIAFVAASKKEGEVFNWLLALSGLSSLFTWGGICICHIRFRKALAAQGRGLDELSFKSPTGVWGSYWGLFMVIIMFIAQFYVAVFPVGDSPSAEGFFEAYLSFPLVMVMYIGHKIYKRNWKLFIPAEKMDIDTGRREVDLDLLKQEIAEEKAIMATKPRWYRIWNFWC

Activity [1]: inactive
Activity [2]: inactive
Activity [3]: inactive
Activity [4]: inactive
inhibition [5]: Active
SMILES: NC(=O)NCCC[C@H](N)C(=O)O
